Measurements: patent US20060116354A1, “Antineoplastic ether lipid compounds with modifications at the sn-3 carbon” (priority 2003, published 2006)

Test system: platelets
Experimental: Briefly, whole citrated blood is diluted 1:2 with sterile saline and placed in a warm chamber with a mini stir bar. An electronic probe, measuring electrical resistance, is inserted in the sample. The aggregometer is calibrated and the baseline is observed to detect any spontaneous aggregation. The test sample is added and allowed to run for at least 6 minutes. If the sample is an agonist the platelets will start to aggregate and stick to the electronic probe causing resistance across the electrodes to increase. This resistance, in ohms, is measured 6 minutes post addition of sample. The test samples are run at 25, 100, 200, 400 and 800 uM and compared to 100 uM L-ET-18-OCH3.
Collection of Blood Sample for in vitro Platelet Aggregation Testing: Venous blood is collected in 4.5 mL. Vacutainer tubes containing 0.129 M sodium citrate using a 21G needle or larger. Blood is immediately mixed by gentle inversion 15-20 times and kept at room temperature. Dilution ratio is 1 to 9 (3.8% citrate solution:blood). One (2.0 mL) Vacutainer tube containing EDTA is also collected for platelet counts. Complete blood counts (CBC) are measured on the CDC Technologies Hemavet 1500 to ensure that the test subject's platelets are within normal range. Any vials of hemolytic blood or blood containing any clots should be discarded. Platelet aggregation testing must be completed within 3 hours of blood collection. After this time the ability of platelets to aggregate decreases.
Cloudy solutions were warmed to ˜50° C. to dissolve and particles. Dilutions were prepared in PBS or saline at 40× concentration. (25 uL test sample are added to 1000 uL diluted blood (1:40)).

## CCCCCCCCCCCCCCCCCCOCC(COP(=O)([O-])OCC[N+](C)(C)C)OC [D-ET18OCH3, 1-O-octadecyl-2-O-methyl-glycerophosphocholine]
  Relative Platelet Aggregation (Ohms) 25 μM: 0 Ohms
  Relative Platelet Aggregation (Ohms) 100 μM: 0 Ohms
  Relative Platelet Aggregation (Ohms) 200 μM: 0 Ohms

## CCCCCCCCCCCCCCCCCCOCC(COP(=O)([O-])OCC[N+](C)(C)C)OC [L-ET18OCH3, 1-O-octadecyl-2-O-methyl-glycerophosphocholine]
  Platelet aggregation response (in words): elicits a platelet aggregation response
  Relative Platelet Aggregation (Ohms) 25 μM: 13 Ohms
  Relative Platelet Aggregation (Ohms) 100 μM: 14 Ohms
  Relative Platelet Aggregation (Ohms) 200 μM: 12 Ohms
